Measured values taken from US5656726A, “Peptide inhibitors of urokinase receptor activity” (Chiron Corporation, priority 1995, dated 1997).
Where two headings read alike, the source gives them in different places. One block for each molecule: values may come before it. Ends that are not written are not given here. Peptide text beside a SMILES is read from it.

Experiments:
[1] = molecular target: T1, recombinant human urokinase receptor (truncated, soluble; suPAR) (Homo sapiens, UniProt Q03405); experiment: 125I-ATF competition binding on immobilized soluble recombinant human urokinase receptor; settings: synthesized peptide, read-out: Affinity
T1 construct: expressed as a truncated, soluble molecule as described previously for mouse L-cells (Masucci et al., J Biol Chem (1991) 266:8655); made in house

[2] = molecular target: T2, full length huPAR ("fluPAR") (Homo sapiens, UniProt Q03405); experiment: Recovery of phage on Sf9 cells expressing full length huPAR; format: binding
T2 construct: Sf9 cells expressing full length huPAR ("fluPAR", day 2 post infection); expressed in transfected cells; host or cells: Sf9 insect cells, infected (day 2 post infection)
Protocol: 1.) 15 mer phage (2.5×10^10) prepared as described above were selected by coincubation with 10^6 Sf9 cells expressing full length huPAR ("fluPAR", day 2 post infection) at room temperature for 60 minutes in Grace's medium with 2% nonfat milk. Binding phage were eluted with 6M urea (pH 2.2), the pH neutralized by adding 2M Tris-HCl, and assayed. The yield of binding phage was 0.0013% (3.3×10^5 pfu). The phage were amplified on solid agar plates as plaques, eluted with Tris-buffered saline, and precipitated with polyethylene glycol.
(§1) 3.) The phage selected in round 2 were reselected on SI9 cells expressing fluPAR (day 2 post-infection) as described for round 1 (2.8×10^10 phage on 10^6 St9 cells). The yield of binding phage from this round was 5.40% (1.5×10^9 pfu), indicating a substantial enrichment in binding phage. Sample phage from the urea eluate were cloned, and their DNAs isolated and sequenced. Binding was assayed against Sf9 cells expressing fluPAR, and Sf9 cells expressing substance P receptor ("SPR," as a control).

[3] = molecular target: T3, substance P receptor ("SPR") (Homo sapiens, UniProt P25103); experiment: Recovery of phage on Sf9 cells expressing substance P receptor (control); format: binding; settings: phage displaying the peptide
T3 construct: expressed in transfected cells; host or cells: Sf9 insect cells
Protocol: as §1

U937 cells = settings: Rabbani et al.; cited from earlier work
[4] = tested on: SaOS-2 osteosarcoma cell line; settings: Rabbani et al.; cited from earlier work
uPAR = uPAR (Homo sapiens, UniProt Q03405); settings: Appella et al., cited from earlier work
[5] = corrected to 100 pM ATF, 0.3 μg/mL suPAR conditions, corrections about 3 × from previous assay conditions

T1 sequence (Q03405 23-299 limits assumed): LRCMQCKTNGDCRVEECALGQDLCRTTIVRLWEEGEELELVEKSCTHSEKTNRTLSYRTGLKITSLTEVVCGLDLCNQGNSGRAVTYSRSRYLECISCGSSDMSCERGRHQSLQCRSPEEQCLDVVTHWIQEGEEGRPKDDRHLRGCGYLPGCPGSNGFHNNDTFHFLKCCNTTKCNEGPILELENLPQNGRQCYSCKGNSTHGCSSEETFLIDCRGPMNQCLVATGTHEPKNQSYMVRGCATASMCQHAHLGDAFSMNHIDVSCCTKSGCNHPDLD
uPAR, sequence (Q03405 23-335): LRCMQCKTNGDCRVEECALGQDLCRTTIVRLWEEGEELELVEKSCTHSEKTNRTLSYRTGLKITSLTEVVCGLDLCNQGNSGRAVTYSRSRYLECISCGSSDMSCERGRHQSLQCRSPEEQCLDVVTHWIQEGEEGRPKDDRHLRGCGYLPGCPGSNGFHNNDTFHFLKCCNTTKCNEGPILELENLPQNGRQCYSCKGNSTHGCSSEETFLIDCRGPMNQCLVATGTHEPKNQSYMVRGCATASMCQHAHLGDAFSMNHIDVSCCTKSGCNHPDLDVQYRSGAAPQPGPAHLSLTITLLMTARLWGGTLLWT
T2 sequence (Q03405 23-335): as above
T3 sequence (P25103 whole entry, species assumed): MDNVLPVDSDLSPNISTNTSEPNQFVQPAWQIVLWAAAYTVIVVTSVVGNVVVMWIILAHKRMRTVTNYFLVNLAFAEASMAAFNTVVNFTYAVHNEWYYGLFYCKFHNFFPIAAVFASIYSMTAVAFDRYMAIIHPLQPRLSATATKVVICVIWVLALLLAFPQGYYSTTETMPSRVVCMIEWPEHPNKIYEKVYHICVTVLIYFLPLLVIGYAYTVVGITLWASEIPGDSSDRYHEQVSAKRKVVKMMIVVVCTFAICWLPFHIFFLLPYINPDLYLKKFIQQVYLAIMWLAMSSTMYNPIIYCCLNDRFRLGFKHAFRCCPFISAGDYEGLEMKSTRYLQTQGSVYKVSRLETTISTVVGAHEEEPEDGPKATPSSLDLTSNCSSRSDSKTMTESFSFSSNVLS

Kd [1, 5]: > 50 µM
Molecule: CC(C)C[C@H](NC(=O)[C@H](CCCCN)NC(=O)[C@H](CO)NC(=O)[C@H](Cc1ccc(O)cc1)NC(=O)[C@H](CCC(N)=O)NC(=O)[C@@H](NC(=O)[C@H](CO)NC(=O)[C@H](CCC(=O)O)NC(=O)[C@H](C)N)C(C)C)C(=O)N[C@@H](Cc1c[nH]c2ccccc12)C(=O)N[C@@H](CCCCN)C(=O)N1CCC[C@H]1C(=O)N[C@@H](CC(N)=O)C(=O)N[C@H](C(=O)N[C@H](C(=O)N[C@@H](CC(C)C)C(=O)N[C@@H](C)C(N)=O)[C@@H](C)O)[C@@H](C)O (H-AESVQYSKLWKPNTTLA-NH2)

Kd ([1]; assay performed at 100 pM ATF, 0.3 μg/mL suPAR in 200 μL (starred values)): 7 µM
Molecule: CC[C@H](C)[C@H](NC(=O)[C@H](Cc1c[nH]cn1)NC(=O)[C@H](CCCCN)NC(=O)[C@H](CC(=O)O)NC(=O)[C@H](Cc1c[nH]cn1)NC(=O)[C@H](Cc1c[nH]c2ccccc12)NC(=O)[C@H](CC(C)C)NC(=O)[C@H](CC(=O)O)NC(=O)[C@H](CCSC)NC(=O)[C@H](Cc1ccccc1)NC(=O)[C@H](CC(C)C)NC(=O)[C@@H](NC(=O)[C@H](CCC(=O)O)NC(=O)[C@H](C)N)[C@@H](C)O)C(=O)N[C@@H](CC(C)C)C(=O)N[C@@H](CC(C)C)C(=O)N[C@H](C(N)=O)[C@@H](C)O (H-AETLFMDLWHDKHILLT-NH2)

Kd [1, 5]: 10 µM
Molecule: CC[C@H](C)[C@H](NC(=O)[C@H](Cc1c[nH]c2ccccc12)NC(=O)[C@H](CCC(=O)O)NC(=O)[C@H](C)N)C(=O)N[C@H](C(=O)N[C@@H](CO)C(=O)N[C@@H](CO)C(=O)N1CCC[C@H]1C(=O)N1CCC[C@H]1C(=O)N[C@@H](CC(C)C)C(=O)N[C@H](C(=O)N[C@@H](CCC(N)=O)C(=O)N[C@@H](Cc1ccc(O)cc1)C(=O)N[C@@H](CC(C)C)C(=O)N[C@@H](Cc1c[nH]c2ccccc12)C(=O)NCC(=O)N[C@@H](Cc1ccccc1)C(N)=O)[C@@H](C)O)[C@@H](C)O (H-AEWITSSPPLTQYLWGF-NH2)

Kd [1, 5]: 5 µM
Molecule: CC[C@H](C)[C@H](NC(=O)[C@@H](NC(=O)[C@H](CCC(N)=O)NC(=O)[C@@H]1CCCN1C(=O)[C@H](CCC(=O)O)NC(=O)[C@@H]1CCCN1C(=O)[C@H](CC(C)C)NC(=O)[C@H](Cc1c[nH]cn1)NC(=O)[C@H](CC(C)C)NC(=O)[C@H](CC(N)=O)NC(=O)[C@H](Cc1ccc(O)cc1)NC(=O)[C@H](Cc1ccccc1)NC(=O)[C@H](CO)NC(=O)[C@H](Cc1c[nH]c2ccccc12)NC(=O)[C@H](CCC(=O)O)NC(=O)[C@H](C)N)[C@@H](C)O)C(=O)N[C@@H](Cc1ccccc1)C(N)=O (H-AEWSFYNLHLPEPQTIF-NH2)

% Recovery huPAR ([2]; phage displaying the peptide, Sf9 cells expressing fluPAR): 6.8%
Specificity (uPAR/SPR) ([2]; ratio of % recovery huPAR to SPR): 857
% Recovery SPR [3]: 0.008%
Molecule: AECLNGGTAVSNKYFSNIHWCN [Positive control, residues 13-32 of the EGFlike domain of urokinase (not selected from library)]

Molecule: fucosylated EGF-like domain: fucosylated EGF-like domain (uPA4-43, produced by cleavage from pro-uPA) (LHQVPSNCDCLNGGT(fucose)CVSNKYFSNIHWCNCPKKFGGQHCE; not fully specified; cysteine pairing not given here; UniProt P00749 24-63, looked up, fragment)
mitogenic activity (U937 cells): Neither fucosylated nor non-fucosylated EGF-like domain was mitogenic
mitogenic activity [4]: mitogenic

Molecule: uPA12-32: critical domain alone, residues 12-32 of the EGF-like domain of uPA (DCLNGGTCVSNKYFSNIHWCN; UniProt P00749 32-52, looked up, fragment)
Kd (uPAR; J. Biol Chem (1987), read-out: affinity for uPAR): 0.04 µM
affinity relative to intact ATF (fold less) (uPAR): about 100 fold
